Molecules are shown by their SMILES.

The target in assay [1] is HSP27 (Homo sapiens, UniProt P04792). Kind of assay: Capillary electrophoresis of heat-denatured citrate synthase protein precipitates. The assay is classed as biochemical. The following applies: for Efficacy compared with BVDU: 10 μmol/L vs 750 μmol/L BVDU. In a few lines:
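Heat-denatured citrate synthase (1.44 μmol/L) with HSP27 (481 nmol/L) in 40 mmol/L HEPES pH 7.4; precipitates pelleted at 16,000×g, 10 min, room temperature, and quantified by capillary electrophoresis, BSA-normalized. Test substances at 10 μmol/L; precipitate relative to 750 μmol/L BVDU set at 1.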

The subject of assay [2] is RPMI-8226 cells. Nature of the assay: Development of resistance to bortezomib in RPMI-8226 cells. Format: cell-based. Here is the method: The cell line RPMI-8226 (DMSZ 402) is a “multiple myeloma” cell line and was chosen because bortezomib is employed as a standard therapy for multiple myeloma. RPMI-8226 cells respond to bortezomib, express HSP27 and develop resistance to Velcade. RPMI-8226 cells were seeded at a cell count of 100,000 cells/ml in each case and regularly passaged. […] In contrast, for RPMI 8226 cells that were treated with 30 μmol/L BVDU, a final cell count of 160,000 cells/ml was detected whereas the final cell count for the culture without the addition of an HSP27 inhibitor amounted to 350,000 cells/ml. As a control, RPMI 8226 cells were treated with the respective test substances alone, FIG. 4b.

The subject of assay [3] is U937 cells. Nature of the assay: Development of resistance to bortezomib in U937 cells. Format: cell-based. The method, then: For this purpose, U937 cells (histiocytic lymphoma) were cultured in DMEM culture medium (+10% FCS) at 37° C., 5% CO2 in an H2O-saturated atmosphere. 100,000 cells/ml were seeded and incubated with the cytostatic agent bortezomib (0.1 ng/ml) and the respective test substance (dosage in the current experiment: 1 μM/L acepromazine). The reference substance, BVDU, was employed at a concentration of 30 μM/L. The cells were in each case passaged before the cell count reached 1,000,000 cells/ml. At each passage, 100,000 cells/ml were again seeded and the dose of the cytostatic agent bortezomib was increased stepwise (0.1 ng/mL or 0.05 ng/mL). The concentration of the test substances remained constant. As a result of the stepwise increase in the dosage of the cytostatic agent, resistance developed in the U937 cells. The development of resistance is prevented or inhibited in the case of a positively tested HSP27 inhibitor. The experiments from Example 6 were repeated in the same way, wherein U937 cells (histiocytic lymphoma) are cultured in DMEM culture medium (+10% FCS) at 37° C., 5% CO2 in an H2O-saturated atmosphere. 100,000 cells/ml were seeded and incubated with an initial concentration of 0.2 ng/ml of the cytostatic agent bortezomib and both without an inhibitor and with acepromazine as an HSP27 inhibitor at a concentration of 1 μM/L. The reference substance, BVDU, was employed at a concentration of 30 μM/L. The cells were passaged in each case before the cell count reached 1,000,000 cells/ml. At each passage, 100,000 cells/ml were again seeded and the dose of the cytostatic agent bortezomib was increased stepwise by 0.1 ng/mL. The concentration of the test substance and the reference substance remained constant. As a result of the stepwise increase in the dosage of the cytostatic agent, resistance developed in the U937 cells. The development of resistance is prevented or inhibited in the case of a positively tested HSP27 inhibitor. The cell line U-937 is a histiocytic lymphoma (DSMZ ACC 5). This cell line also responds to treatment with bortezomib, expresses HSP27 and develops resistance to bortezomib. Bortezomib is not the standard therapy for this lymphoma, but is being discussed as a possible therapeutic agent. U-937 cells were seeded with a cell count of 100,000 cells/ml in each case and regularly passaged. […] At the end of the experiment, 70,000 living cells per ml medium could be detected. For the treatment with 30 μmol/L BVDU, a final cell count of 250,000 cells/ml was detected whereas the final cell count in the culture without the addition of an HSP27 inhibitor amounted to 450,000 cells/ml. As a control, U-937 cells were treated with the respective test substances alone, FIG. 10b.

Chain of HSP27 (P04792 whole entry): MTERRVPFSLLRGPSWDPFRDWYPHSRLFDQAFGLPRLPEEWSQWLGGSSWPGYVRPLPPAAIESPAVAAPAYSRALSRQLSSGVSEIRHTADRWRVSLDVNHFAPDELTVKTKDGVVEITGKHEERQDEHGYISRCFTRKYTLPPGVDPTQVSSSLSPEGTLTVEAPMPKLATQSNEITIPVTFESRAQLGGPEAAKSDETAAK

`CC(=O)c1ccc2c(c1)N(CCCN(C)C)c1ccccc1S2` [Acepromazine]: the “Efficacy compared with BVDU” value in assay [1] (43° C. for 120 minutes (Table 1)) and in assay [1] (43° C. for 120 minutes (Table 2)) was 74.25 x in each case. For the same compound, the “Rel. quantity of protein prec. CS” value in assay [1] (10 μmol/L, 43° C. for 120 minutes, relative to 750 μmol/L BVDU = 1 (Table 1)) was 0.99; in assay [1] (10 μmol/L, 43° C. for 120 minutes, relative to 750 μmol/L BVDU = 1 (Table 2)), 0.99. The “development of resistance to the cytostatic agent bortezomib” value in assay [2] (bortezomib 0.2-0.4 ng/ml + 0.75 μmol/L acepromazine (FIG. 4a)) and in assay [3] (bortezomib 0.1-0.5 ng/ml + 0.75 μmol/L acepromazine (FIG. 10a)) was “significantly inhibited” throughout. For the same compound, the “living cells at the end of the experiment” value was 30,000 living cells per ml medium in assay [2] (bortezomib 0.2-0.4 ng/ml + 0.75 μmol/L acepromazine (FIG. 4a), without HSP27 inhibitor 350,000 cells/ml); 70,000 living cells per ml medium in assay [3] (bortezomib 0.1-0.5 ng/ml + 0.75 μmol/L acepromazine (FIG. 10a), without HSP27 inhibitor 450,000 cells/ml); “no living cells were detectable” in assay [3] (bortezomib 0.1 to 0.5 ng/ml stepwise + 1 μM acepromazine (FIG. 2), without HSP27 inhibitor 790,000 cells/ml); “no living cells were detectable” in assay [3] (bortezomib 0.2 to 0.4 ng/ml stepwise + 1 μM acepromazine (FIG. 3), without HSP27 inhibitor 230,000 cells/ml). For the same compound, the “development of resistance to bortezomib” value in assay [3] (bortezomib 0.1 to 0.5 ng/ml stepwise + 1 μM acepromazine (FIG. 2)) and in assay [3] (bortezomib 0.2 to 0.4 ng/ml stepwise + 1 μM acepromazine (FIG. 3)) was “no development of resistance occurred” throughout.
On to `O=c1[nH]c(=O)n([C@H]2C[C@H](O)[C@@H](CO)O2)cc1/C=C/Br` [BVDU, (E)-5-(2-bromovinyl)-2′-deoxyuridine], for which the “Rel. quantity of protein prec. CS” value worked out at 1 in assay [1] (750 μmol/L, 43° C. for 70 minutes, set at 1 (Table 3)); 1 in assay [1] (750 μmol/L, 43° C. for 120 minutes, set at 1 (Table 1)); 1 in assay [1] (750 μmol/L, 43° C. for 120 minutes, set at 1 (Table 2)). In addition, the final cell count in assay [2] (bortezomib 0.075-0.275 ng/ml + 30 μmol/L BVDU (FIG. 9a), without HSP27 inhibitor 510,000 cells/ml) is on record as 340,000 cells/ml; in assay [2] (bortezomib 0.2-0.4 ng/ml + 30 μmol/L BVDU (FIG. 4a), without HSP27 inhibitor 350,000 cells/ml), 160,000 cells/ml; in assay [2] (bortezomib 0.2-0.4 ng/ml + 30 μmol/L BVDU (FIG. 5a), without HSP27 inhibitor 350,000 cells/ml) it was 160,000 cells/ml; in assay [3] (bortezomib 0.1-0.5 ng/ml + 30 μmol/L BVDU (FIG. 10a), without HSP27 inhibitor 450,000 cells/ml), 250,000 cells/ml; in assay [3] (bortezomib 0.1-0.5 ng/ml + 30 μmol/L BVDU (FIG. 11a), without HSP27 inhibitor 450,000 cells/ml), 250,000 cells/ml; in assay [3] (bortezomib 0.1 to 0.5 ng/ml stepwise + 30 μM BVDU (FIG. 2), without HSP27 inhibitor 790,000 cells/ml), 430,000 cells/ml. For the same compound, in assay [3] (bortezomib 0.2 to 0.4 ng/ml stepwise + 30 μM BVDU (FIG. 3), without HSP27 inhibitor 230,000 cells/ml), the final cell count is reported as 60,000 cells/ml.

The values are drawn from US10940150B2, “Thymine derivatives and quinazoline-dione derivatives for the inhibition of HSP27” (TECHNISCHE UNIVERSITAET DRESDEN, priority 2014, dated 2021).
